pIC50: −log10 of the molar value.
Legend:
CYP2C9 = CYP2C9 (Homo sapiens, UniProt P11712); experiment: Inhibition of CYP2C9 activity in HLM; assay type: in vitro ADME; settings: human, human liver microsomes, 200 nM to 10 µM, 10 min pre-incubation
SLC10A1 gene expression = SLC10A1 gene expression in upcyte hepatocytes (Fluidigm RT-PCR); assay type: cell-based, human; settings: 5 µM, 72 h, both cell strains
Excerpt: (§1) Differences between induced and control samples were compared using Welch’s t-test (GraphPad Prism, version 5.04), when the fold-change was considered biologically relevant (1.5-fold increase or decrease in fold-changes) and corrected for multiple testing according to Bonferroni. […] An unpaired t-test assuming unequal variances was used for testing of differences in the expression patterns, when the fold-change was considered biologically relevant (1.5-fold increase or decrease in fold-changes) and corrected using Bonferroni adjustments.

CYP3A4 = CYP3A4 activity in upcyte hepatocytes after treatment (probe substrate cocktail); settings: 5 µM, 72 h, parental and derived cell line
Procedure: (§2) Cells were cultivated in hepatocyte culture medium at 37 °C and 5 °% CO2 in a humidified incubator. Before starting experiments, cells were cultivated in hepatocyte culture medium containing 0.5% (v/v) DMSO (Preculture medium) for 5 days (density of 0.8 × 10^4 cells/cm^2) and were subcultivated in high-performance medium containing 0.1% (v/v) DMSO (Metabolism conditioning medium) for 3–5 days (density of 1.6 × 10^5 cells/cm^2, confluence). The medium was replaced every 2–3 days.
(§3) In HLM and supersome™ incubations the formation rate is given as nmol µg^−1 min^−1 and fmol pmol^−1 min^−1, respectively, and was calculated as the mean ± SD. […] The intrinsic Clearance (Clint) was given as Vmax/Km ratio. […] Activity of CYP enzymes in induction assays is given as the fold-change (mean ± SD) compared to the corresponding DMSO-treated control. […] Gene expression patterns of treated cells are given as fold-change compared to the corresponding DMSO-treated control samples, as described above. […] In induction and inhibition experiments corresponding EC50 and IC50 values were calculated by nonlinear regression. In all experiments a level of probability (p) ≤ 0.05 for statistical testing was considered significant.
(§4) As control 0.05 % DMSO was used. The basal CYP activity and induction of CYP activity compared to the DMSO control were measured via HPLC-ESI-MS/MS.

CYP2A6 gene expression = CYP2A6 gene expression in upcyte hepatocytes (Fluidigm RT-PCR); assay type: cell-based, human; settings: 5 µM, 72 h, both cell strains
Excerpt: as §1

CYP2C19 = CYP2C19 (Homo sapiens, UniProt P33261); experiment: Inhibition of CYP2C19 activity in HLM; assay type: in vitro ADME; settings: human, human liver microsomes, 200 nM to 10 µM, 10 min pre-incubation
Chain of CYP2C19 (P33261 whole entry): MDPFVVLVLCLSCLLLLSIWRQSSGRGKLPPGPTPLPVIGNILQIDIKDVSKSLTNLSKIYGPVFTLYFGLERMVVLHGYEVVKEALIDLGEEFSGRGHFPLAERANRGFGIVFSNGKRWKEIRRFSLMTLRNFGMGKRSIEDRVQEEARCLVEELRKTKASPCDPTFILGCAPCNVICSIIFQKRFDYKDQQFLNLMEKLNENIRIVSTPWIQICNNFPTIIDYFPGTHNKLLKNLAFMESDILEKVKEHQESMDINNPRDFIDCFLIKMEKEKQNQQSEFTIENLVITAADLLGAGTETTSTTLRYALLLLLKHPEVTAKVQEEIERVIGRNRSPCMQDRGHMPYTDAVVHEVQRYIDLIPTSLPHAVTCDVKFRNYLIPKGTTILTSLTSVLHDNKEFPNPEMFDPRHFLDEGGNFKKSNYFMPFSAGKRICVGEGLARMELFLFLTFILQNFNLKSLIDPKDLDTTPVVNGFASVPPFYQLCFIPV

CYP2C8 [1] = biological target: T1, CYP2C8 (Homo sapiens, UniProt P10632); experiment: CYP2C8 activity in upcyte hepatocytes after treatment (probe substrate cocktail); assay type: cell-based; parameters: host or cells: upcyte hepatocytes 653-03 and 653-03 #138 (653-03 2D6); settings: human, upcyte hepatocytes 653-03 and 653-03 2D6, probe amodiaquine 5 µM, 5 µM, both cell lines
T1 sequence (P10632 1-490): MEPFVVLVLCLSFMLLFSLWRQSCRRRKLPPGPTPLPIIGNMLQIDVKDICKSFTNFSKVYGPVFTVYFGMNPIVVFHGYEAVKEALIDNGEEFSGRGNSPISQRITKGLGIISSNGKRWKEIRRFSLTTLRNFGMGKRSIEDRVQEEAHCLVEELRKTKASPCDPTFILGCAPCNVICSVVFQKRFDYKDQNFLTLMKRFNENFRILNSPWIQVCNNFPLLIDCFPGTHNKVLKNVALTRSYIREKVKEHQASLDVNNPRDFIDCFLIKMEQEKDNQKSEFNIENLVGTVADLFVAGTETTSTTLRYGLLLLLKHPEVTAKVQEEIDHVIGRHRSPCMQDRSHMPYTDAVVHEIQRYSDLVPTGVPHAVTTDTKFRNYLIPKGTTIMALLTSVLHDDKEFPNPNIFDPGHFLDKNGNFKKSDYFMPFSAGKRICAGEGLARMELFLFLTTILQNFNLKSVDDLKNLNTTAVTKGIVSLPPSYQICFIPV
Procedure: as §2, §3, §4

CYP2C8 [2] = biological target: T1, CYP2C8; experiment: Inhibition of CYP2C8 activity in HLM; assay type: in vitro ADME; settings: 200 nM to 10 µM, 10 min pre-incubation
CYP3A4 gene expression = CYP3A4 gene expression in upcyte hepatocytes (Fluidigm RT-PCR); settings: 5 µM, 72 h, both cell strains
Excerpt: Total RNA was isolated from cells using the Direct-zol™ RNA MiniPrep kit (Zymo Research Corp., Irvine, California). cDNA was synthesized using TaqMan Reverse Transcription Reagents (Life technologies, Applera GmbH, Darmstadt, Germany) and the expression of 25 genes representative of phase I and phase II drug metabolism and transport was quantified by Fluidigm’s BioMark HD high-throughput quantitative chip platform (Fluidigm Corporation, San Francisco, USA). For relative gene expression analysis, the delta-delta-Ct (ΔΔCt) method was used: the Ct values of the target mRNA were first normalized to those of the endogenous control glyceraldehyde-3-phosphate dehydrogenase (GAPDH) followed by dividing values of experimental samples by their corresponding DMSO-treated controls to calculate the x-fold changes of mRNA expression.
as §3, §4

[3] = tested on: upcyte hepatocytes 653-03 2D6; experiment: Tam metabolism in upcyte hepatocytes 653-03 2D6, metabolites in culture medium; assay type: in vitro ADME, human; settings: cells incubated with 1 µM Tam up to 144 h
Procedure: The medium was replaced every 2–3 days. […].
The culture medium was collected after 24, 48, 72, 96 and 144 h followed by metabolite measurements using HPLC-ESI-MS/MS.
Protein was precipitated by the addition of ACN containing 1% of acetic acid and the corresponding deuterated internal standards to the same volume of the sample followed by centrifugation at 20.000 g for 15 min at RT. […] Analytes were separated on a Zorbax Eclipse Plus C18 column (1.8 µm, 100 × 2.1 mm, Agilent technologies) and detected on a 6460 triple quadrupole mass spectrometer (Agilent technologies) in positive ESI MRM mode. Glucuronides of estrogen-like metabolites were detected separately via MS/MS-measurements in negative ESI MRM mode.
[…]. […] […].

Chain of CYP2C9 (P11712 whole entry): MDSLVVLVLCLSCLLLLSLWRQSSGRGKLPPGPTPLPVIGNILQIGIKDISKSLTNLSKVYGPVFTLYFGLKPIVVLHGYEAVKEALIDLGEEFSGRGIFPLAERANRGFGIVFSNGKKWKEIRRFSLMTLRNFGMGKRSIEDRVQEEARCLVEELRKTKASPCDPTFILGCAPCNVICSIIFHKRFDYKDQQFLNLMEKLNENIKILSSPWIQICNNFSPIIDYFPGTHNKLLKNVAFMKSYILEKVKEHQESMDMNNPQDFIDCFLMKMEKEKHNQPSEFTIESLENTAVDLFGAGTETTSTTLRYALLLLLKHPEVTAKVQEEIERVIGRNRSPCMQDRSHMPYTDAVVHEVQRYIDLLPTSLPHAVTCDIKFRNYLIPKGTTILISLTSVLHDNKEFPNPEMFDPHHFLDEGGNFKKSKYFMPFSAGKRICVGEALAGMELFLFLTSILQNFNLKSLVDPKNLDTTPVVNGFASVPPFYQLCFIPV

IC50 at 15 min (CYP2C9): > 10 µM | induction of CYP3A4 activity compared to DMSO control (CYP3A4): up to 2.1 fold | CYP2A6 gene expression, downregulation (CYP2A6 gene expression): up to twofold | IC50 at 15 min (CYP2C19): > 10 µM | inhibition at 72 h, 5 µM (CYP2C8 [1]): ≤ 90% | pIC50 (CYP2C8 [2]): < 5.00 | IC50 of CYP2C8 activity (CYP2C8 [2]): only minor inhibition | CYP3A4 gene expression, induction vs DMSO control (CYP3A4 gene expression): up to 5.6 fold | concentration in the supernatant of 653-03 2D6 cells relative to parental cells [3]: up to 20 times
SMILES: CC/C(=C(\c1ccc(O)cc1)c1ccc(OCCN(C)C)cc1)c1ccccc1 [4OH-Tam, (Z)-4-Hydroxytamoxifen]
SLC10A1 gene expression, downregulation (fold lower) (SLC10A1 gene expression): up to twofold

From PMC5866846 (Archives of Toxicology, 2017)
